Where two headings read alike, the source gives them in different places.
Legend:
[1] = biological target: T1, CNGA1 (homomeric channel) (Bos taurus, UniProt Q00194); test: inside-out patch clamp, activated current; type: biochemical; details: 2.5 mM cGMP, ±60 mV, pH 7.2; activation, saturating
T1 sequence (Q00194 1-690): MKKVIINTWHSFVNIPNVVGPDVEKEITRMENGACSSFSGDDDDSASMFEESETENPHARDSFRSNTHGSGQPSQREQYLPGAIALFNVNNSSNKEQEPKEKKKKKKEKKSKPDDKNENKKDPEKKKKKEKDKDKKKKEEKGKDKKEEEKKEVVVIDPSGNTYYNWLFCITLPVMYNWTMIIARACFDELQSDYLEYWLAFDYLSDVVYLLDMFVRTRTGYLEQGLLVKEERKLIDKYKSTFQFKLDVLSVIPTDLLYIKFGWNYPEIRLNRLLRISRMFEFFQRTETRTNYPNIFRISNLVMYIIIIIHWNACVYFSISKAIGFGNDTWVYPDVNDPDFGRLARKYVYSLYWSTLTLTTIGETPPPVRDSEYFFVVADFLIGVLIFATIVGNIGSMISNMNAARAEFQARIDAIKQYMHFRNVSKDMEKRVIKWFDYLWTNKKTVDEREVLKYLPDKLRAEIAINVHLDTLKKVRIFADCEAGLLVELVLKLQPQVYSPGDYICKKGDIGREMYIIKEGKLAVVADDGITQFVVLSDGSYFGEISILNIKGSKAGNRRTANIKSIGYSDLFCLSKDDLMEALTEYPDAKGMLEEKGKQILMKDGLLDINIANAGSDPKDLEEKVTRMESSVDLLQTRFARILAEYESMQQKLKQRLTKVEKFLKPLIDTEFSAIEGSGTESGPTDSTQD

[2] = biological target: T2, CNGA1-ΔCLZ (homomeric channel) (Bos taurus, UniProt Q00194, DEL609-693); test: inside-out patch clamp, block of cGMP-activated current; type: cell-based
T2 sequence (Q00194 1-608): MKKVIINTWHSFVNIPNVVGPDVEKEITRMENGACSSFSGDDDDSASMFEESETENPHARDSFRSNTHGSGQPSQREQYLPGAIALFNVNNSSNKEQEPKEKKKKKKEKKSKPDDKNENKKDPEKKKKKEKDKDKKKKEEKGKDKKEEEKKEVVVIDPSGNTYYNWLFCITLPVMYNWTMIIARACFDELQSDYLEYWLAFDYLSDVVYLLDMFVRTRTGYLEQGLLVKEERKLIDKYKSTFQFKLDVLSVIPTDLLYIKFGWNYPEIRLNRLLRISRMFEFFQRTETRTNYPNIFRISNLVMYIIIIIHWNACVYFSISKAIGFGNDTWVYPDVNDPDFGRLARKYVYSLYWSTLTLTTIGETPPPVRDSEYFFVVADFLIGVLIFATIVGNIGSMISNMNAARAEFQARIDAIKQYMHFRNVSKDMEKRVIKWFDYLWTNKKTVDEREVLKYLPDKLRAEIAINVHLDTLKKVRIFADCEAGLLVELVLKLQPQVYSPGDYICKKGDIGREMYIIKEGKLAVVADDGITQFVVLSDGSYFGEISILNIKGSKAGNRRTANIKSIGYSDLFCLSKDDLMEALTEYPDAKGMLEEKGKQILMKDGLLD

[3] = biological target: CNGA1+CNGB1 (heteromeric rod CNG channel) (Bos taurus, UniProt Q00194+Q28181); test: as above; type: cell-based
CNGA1+CNGB1-ΔN = CNGA1+CNGB1-ΔN (Bos taurus, UniProt Q00194+Q28181, DEL2-765); test: as above; type: cell-based
[4] = biological target: T1, CNGA1 (homomeric channel); test: as above; type: cell-based
[5] = biological target: the molecule itself
SEC-MALS = biological target: the molecule itself; test: SEC-MALS

Sequence of CNGA1+CNGB1-ΔN (Q28181 766-1394, stated change not applied, one chain of several): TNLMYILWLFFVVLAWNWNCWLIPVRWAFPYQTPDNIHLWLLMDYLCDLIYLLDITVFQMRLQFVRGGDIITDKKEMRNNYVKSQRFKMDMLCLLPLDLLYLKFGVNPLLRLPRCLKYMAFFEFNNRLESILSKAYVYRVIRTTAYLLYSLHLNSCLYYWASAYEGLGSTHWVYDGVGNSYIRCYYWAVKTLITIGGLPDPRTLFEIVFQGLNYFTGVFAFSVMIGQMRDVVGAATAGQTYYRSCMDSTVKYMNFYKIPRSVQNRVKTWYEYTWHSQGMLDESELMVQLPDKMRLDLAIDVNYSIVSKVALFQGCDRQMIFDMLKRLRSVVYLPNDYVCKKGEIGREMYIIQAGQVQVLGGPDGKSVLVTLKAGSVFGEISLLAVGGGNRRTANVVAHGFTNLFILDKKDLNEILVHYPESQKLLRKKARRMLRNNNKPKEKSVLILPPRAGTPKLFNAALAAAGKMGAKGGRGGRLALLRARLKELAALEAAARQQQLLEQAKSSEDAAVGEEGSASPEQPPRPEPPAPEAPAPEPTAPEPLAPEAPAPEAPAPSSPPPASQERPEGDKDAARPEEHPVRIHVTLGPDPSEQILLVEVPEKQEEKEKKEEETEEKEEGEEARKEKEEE
Sequence of CNGA1+CNGB1 (heteromeric rod CNG channel) (Q28181 whole entry, one chain of several): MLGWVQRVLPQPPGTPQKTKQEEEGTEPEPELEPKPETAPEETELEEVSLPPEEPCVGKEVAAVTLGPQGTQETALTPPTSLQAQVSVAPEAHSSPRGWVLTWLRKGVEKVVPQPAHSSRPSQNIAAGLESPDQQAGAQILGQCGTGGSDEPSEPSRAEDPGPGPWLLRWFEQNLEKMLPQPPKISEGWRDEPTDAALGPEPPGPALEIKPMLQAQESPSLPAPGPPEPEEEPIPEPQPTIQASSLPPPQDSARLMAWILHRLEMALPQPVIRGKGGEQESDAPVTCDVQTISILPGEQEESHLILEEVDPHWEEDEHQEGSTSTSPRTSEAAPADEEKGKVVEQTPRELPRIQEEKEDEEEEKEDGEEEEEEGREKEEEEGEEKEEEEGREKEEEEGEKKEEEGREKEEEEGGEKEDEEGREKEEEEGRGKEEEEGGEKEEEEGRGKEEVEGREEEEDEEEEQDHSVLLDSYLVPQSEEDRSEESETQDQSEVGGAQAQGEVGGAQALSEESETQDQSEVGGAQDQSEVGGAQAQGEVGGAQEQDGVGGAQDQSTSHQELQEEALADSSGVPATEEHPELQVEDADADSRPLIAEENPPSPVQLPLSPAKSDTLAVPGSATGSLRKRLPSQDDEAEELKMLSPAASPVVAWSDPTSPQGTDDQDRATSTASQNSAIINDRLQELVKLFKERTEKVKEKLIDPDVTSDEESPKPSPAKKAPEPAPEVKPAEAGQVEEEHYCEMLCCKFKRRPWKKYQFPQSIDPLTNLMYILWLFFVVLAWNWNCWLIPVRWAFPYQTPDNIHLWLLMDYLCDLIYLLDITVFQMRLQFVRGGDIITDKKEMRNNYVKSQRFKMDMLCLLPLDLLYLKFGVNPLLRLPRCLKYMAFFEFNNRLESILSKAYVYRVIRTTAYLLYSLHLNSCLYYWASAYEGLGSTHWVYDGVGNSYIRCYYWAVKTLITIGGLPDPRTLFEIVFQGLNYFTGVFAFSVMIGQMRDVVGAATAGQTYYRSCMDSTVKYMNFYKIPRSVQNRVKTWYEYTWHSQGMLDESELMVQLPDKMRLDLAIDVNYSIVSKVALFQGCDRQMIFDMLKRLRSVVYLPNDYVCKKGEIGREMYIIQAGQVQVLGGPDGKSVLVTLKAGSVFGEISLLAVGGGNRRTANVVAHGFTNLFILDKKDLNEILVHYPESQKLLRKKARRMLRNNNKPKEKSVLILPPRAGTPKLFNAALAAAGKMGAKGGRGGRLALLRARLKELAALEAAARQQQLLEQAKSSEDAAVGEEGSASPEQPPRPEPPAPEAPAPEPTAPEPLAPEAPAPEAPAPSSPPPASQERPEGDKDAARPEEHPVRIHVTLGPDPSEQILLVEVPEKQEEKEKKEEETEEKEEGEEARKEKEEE

Molecule: Nc1nc2c(ncn2[C@@H]2O[C@@H]3COP(=O)(O)O[C@H]3[C@H]2O)c(=O)[nH]1 [cGMP]
- inside-out patch clamp, activated current [1]: Homomeric channels of CNGA1 subunits are efficiently activated by saturating cGMP

Molecule: COc1ccc([C@H]2Sc3ccccc3N(CCN(C)C)C(=O)[C@H]2OC(C)=O)cc1 [L-cis-diltiazem]
- IC50 [2]: 164 ± 8.2 µM
- IC50 [3]: 2.45 ± 0.28 µM
- IC50 (CNGA1+CNGB1-ΔN): 1.4 ± 0.21 µM
- IC50 [4]: 174 ± 7.2 µM

Molecule: LEEKVTRMESSVDLLQTRFARILAEYESMQQKLKQRLTKVEKFLKPL (domain or fragment, bovine, UniProt Q00194 621-667, looked up) [CNGA1#621–667]
- stoichiometry N [5]: 3

B1: CNGA3#626–694 (domain or fragment, human, UniProt Q16281 626-694, looked up)
chain: LEEKVEQLGSSLDTLQTRFARLLAEYNATQMKMKQRLSQLESQVKGGGDKPLADGEVPGDATKTEDKQQ
- stoichiometry N (SEC-MALS): 3

B2: CNGA1#621–690 (domain or fragment, bovine, UniProt Q00194 621-690, looked up)
chain: LEEKVTRMESSVDLLQTRFARILAEYESMQQKLKQRLTKVEKFLKPLIDTEFSAIEGSGTESGPTDSTQD
- stoichiometry N (SEC-MALS): 3

Molecule: LEEKVEQLGSSLDTLQTRFARLLAEYNATQMKMKQRLSQLESQVKGG (domain or fragment, human, UniProt Q16281 626-672, looked up) [CNGA3#626–672]
- stoichiometry N [5]: 3

— article PMC3265371 (Nature Communications, 2011)
